Data as given in ChEMBL document CHEMBL3351913, “Malonate-based inhibitors of mammalian serine racemase: kinetic characterization and structure-based computational study” (Eur J Med Chem, 2015).

How the values were obtained:
[1] = biological target: T1, Serine racemase (Mus musculus, UniProt Q9QZX7); test: Inhibition of mouse serine racemase using L-serine substrate by reversed-phase HPLC analysis
T1 sequence (Q9QZX7 whole entry): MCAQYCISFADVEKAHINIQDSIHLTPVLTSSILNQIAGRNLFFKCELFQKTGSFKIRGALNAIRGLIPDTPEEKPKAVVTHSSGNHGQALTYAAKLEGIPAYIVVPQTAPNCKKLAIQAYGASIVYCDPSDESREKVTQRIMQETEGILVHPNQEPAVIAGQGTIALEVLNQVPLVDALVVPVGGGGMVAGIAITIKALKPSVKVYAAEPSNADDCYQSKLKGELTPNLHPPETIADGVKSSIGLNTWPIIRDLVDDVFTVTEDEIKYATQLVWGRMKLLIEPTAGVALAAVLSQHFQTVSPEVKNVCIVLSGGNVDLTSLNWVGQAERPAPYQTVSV

[2] = biological target: T1, Serine racemase; test: Inhibition of mouse serine racemase by Lineweaver-Burk plot

IC50 [1] [µM] | SMILES | Ki [2] [µM]
94 | O=C(O)C(O)C(=O)O | 
400 | NC(C(=O)O)C(=O)O | 
2160 | O=C(O)C(F)(F)C(=O)O | 
5630 | CC(C)(C(=O)O)C(=O)O | 
7030 | O=C(O)C(C(=O)O)c1ccsc1 | 
40600 | O=C(O)C(CO)(CO)C(=O)O | 
67 | O=C(O)CC(=O)O [MALONIC ACID] | 27

SMILES | IC50 [1] [µM] | Ki [2] [µM]
O=C(O)C(Cl)(Cl)C(=O)O | 57 | 19
O=C(O)C(Cl)C(=O)O | 780 | 
CC(C(=O)O)C(=O)O [METHYLMALONIC ACID] | 1850 | 
